Source: US20160297833A1, “THIENOPYRIMIDINES AS MKNK1 AND MKNK2 INHIBITORS” (BAYER PHARMA AKTIENGESELLSCHAFT, priority 2013, published 2016)

biological target: T1, human full-length MKNK1 (Homo sapiens, UniProt Q9BUB5, T385D); assay: MKNK1 kinase high ATP assay (TR-FRET); format: biochemical; details: Table 1; MKNK1 kinase high ATP assay, 2 mM ATP; read-out: MKNK1 IC50
T1 construct: GST (N); purchased Carna Biosciences 02-145; host or cells: insect cells (baculovirus expression system)
Summary of the method: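 Full-length human MKNK1 (T385D) preincubated 15 min at 22 °C with compound in HEPES pH 7.5/MgCl2/DTT buffer; reaction with 2 mM ATP (final) and 0.06 μM biotinylated peptide (final), 30 min at 22 °C.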

T1 sequence (Q9BUB5 1-424 isoform Q9BUB5-2 T344D): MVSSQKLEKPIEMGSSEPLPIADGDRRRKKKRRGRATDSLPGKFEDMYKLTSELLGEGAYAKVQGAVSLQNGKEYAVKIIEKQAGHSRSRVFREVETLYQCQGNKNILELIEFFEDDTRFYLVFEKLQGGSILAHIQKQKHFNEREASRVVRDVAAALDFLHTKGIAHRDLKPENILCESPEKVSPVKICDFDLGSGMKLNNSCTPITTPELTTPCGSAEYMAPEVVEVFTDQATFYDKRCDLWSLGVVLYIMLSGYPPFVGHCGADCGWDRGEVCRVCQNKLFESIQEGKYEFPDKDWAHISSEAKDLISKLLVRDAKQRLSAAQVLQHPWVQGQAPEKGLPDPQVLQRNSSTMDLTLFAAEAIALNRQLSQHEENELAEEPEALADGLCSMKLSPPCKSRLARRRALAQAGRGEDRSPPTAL

Compound	IC50
CC(C)Oc1cc2[nH]ncc2cc1Nc1ncnc2sc3c(c12)CC[C@H](C(=O)N1CC[C@H](N(C)C)C1)C3 [Example 168, [(3S)-3-(dimethylamino)pyrrolidin-1-yl][(7S)-4-{[6-(propan-2-yloxy)-1H-indazol-5-yl]amino}-5,6,7,8-tetrahydro[1]benzothieno[2,3-d]pyrimidin-7-yl]methanone]	0.4 nM
CC(C)Oc1cc2[nH]ncc2cc1Nc1ncnc2sc3c(c12)CC[C@H](C(=O)N1CC[C@@H](N(C)C)C1)C3 [Example 169, [(3R)-3-(Dimethylamino)pyrrolidin-1-yl][(7S)-4-{[6-(propan-2-yloxy)-1H-indazol-5-yl]amino}-5,6,7,8-tetrahydro[1]benzothieno[2,3-d]pyrimidin-7-yl]methanone]	0.1 nM
COc1cc2[nH]ncc2cc1Nc1ncnc2sc3c(c12)CC[C@H](C(=O)N(C)CCCn1ccnc1)C3 [Example 170, (7S)—N-[3-(1H-Imidazol-1-yl)propyl]-4-[(6-methoxy-1H-indazol-5-yl)amino]-N-methyl-5,6,7,8-tetrahydro[1]benzothieno[2,3-d]pyrimidine-7-carboxamide]	0.6 nM
COc1cc2[nH]ncc2cc1Nc1ncnc2sc3c(c12)CC[C@H](C(=O)N(C)CCn1ccnc1)C3 [Example 171, (7S)—N-[2-(1H-Imidazol-1-yl)ethyl]-4-[(6-methoxy-1H-indazol-5-yl)amino]-N-methyl-5,6,7,8-tetrahydro[1]benzothieno[2,3-d]pyrimidine-7-carboxamide]	0.4 nM
CCOc1cc2[nH]ncc2cc1Nc1ncnc2sc3c(c12)CC[C@H](C(=O)N1CC[C@H](N(C)C)C1)C3 [Example 172, [(3S)-3-(Dimethylamino)pyrrolidin-1-yl]{(7S)-4-[(6-ethoxy-1H-indazol-5-yl)amino]-5,6,7,8-tetrahydro[1]benzothieno[2,3-d]pyrimidin-7-yl}methanone]	0.1 nM
CCOc1cc2[nH]ncc2cc1Nc1ncnc2sc3c(c12)CC[C@H](C(=O)N(C)CC(C)(C)C)C3 [Example 173, (7S)—N-(2,2-Dimethylpropyl)-4-[(6-ethoxy-1H-indazol-5-yl)amino]-N-methyl-5,6,7,8-tetrahydro[1]benzothieno[2,3-d]pyrimidine-7-carboxamide]	0.4 nM
CCCN(C)C(=O)[C@H]1CCc2c(sc3ncnc(Nc4cc5cn[nH]c5cc4OCC)c23)C1 [Example 174, (7S)-4-[(6-Ethoxy-1H-indazol-5-yl)amino]-N-methyl-N-propyl-5,6,7,8-tetrahydro[1]benzothieno[2,3-d]pyrimidine-7-carboxamide]	0.1 nM
CCOc1cc2[nH]ncc2cc1Nc1ncnc2sc3c(c12)CC[C@H](C(=O)N1CC(N2CCCCC2)C1)C3 [Example 175, {(7S)-4-[(6-Ethoxy-1H-indazol-5-yl)amino]-5,6,7,8-tetrahydro[1]benzothieno[2,3-d]pyrimidin-7-yl}[3-(piperidin-1-yl)azetidin-1-yl]methanone]	0.2 nM
CN(C)C(=O)[C@H]1CCc2c(sc3ncnc(Nc4cc5cn[nH]c5cc4OCC(C)(C)C)c23)C1 [Example 176, (7S)-4-{[6-(2,2-Dimethylpropoxy)-1H-indazol-5-yl]amino}-N,N-dimethyl-5,6,7,8-tetrahydro[1]benzothieno[2,3-d]pyrimidine-7-carboxamide]	39.8 nM
COc1cc2[nH]ncc2cc1Nc1ncnc2sc3c(c12)CC[C@H](C(=O)N(C)CC(C)(C)C)C3 [Example 177, (7S)—N-(2,2-Dimethylpropyl)-4-[(6-methoxy-1H-indazol-5-yl)amino]-N-methyl-5,6,7,8-tetrahydro[1]benzothieno[2,3-d]pyrimidine-7-carboxamide]	2.6 nM
COc1cc2[nH]ncc2cc1Nc1ncnc2sc3c(c12)CC[C@H](C(=O)N1CC(N2CCCCC2)C1)C3 [Example 178, {(7S)-4-[(6-Methoxy-1H-indazol-5-yl)amino]-5,6,7,8-tetrahydro[1]benzothieno[2,3-d]pyrimidin-7-yl}[3-(piperidin-1-yl)azetidin-1-yl]methanone]	0.2 nM
COc1cc2[nH]ncc2cc1Nc1ncnc2sc3c(c12)CC[C@H](C(=O)N1CC[C@@H](N(C)C)C1)C3 [Example 179, [(3R)-3-(Dimethylamino)pyrrolidin-1-yl]{(7S)-4-[(6-methoxy-1H-indazol-5-yl)amino]-5,6,7,8-tetrahydro[1]benzothieno[2,3-d]pyrimidin-7-yl}methanone]	0.4 nM
CN(C)C(=O)[C@H]1CCc2c(sc3ncnc(Nc4cc5cn[nH]c5cc4OCCCNC(=O)OC(C)(C)C)c23)C1 [Example 180, tert-Butyl {3-[(5-{[(7S)-7-(dimethylcarbamoyl)-5,6,7,8-tetrahydro[1]benzothieno[2,3-d]pyrimidin-4-yl]amino}-1H-indazol-6-yl)oxy]propyl}carbamate]	0.4 nM
CN(C)C(=O)[C@H]1CCc2c(sc3ncnc(Nc4cc5cn[nH]c5cc4Br)c23)C1 [Example 181, (7S)-4-[(6-Bromo-1H-indazol-5-yl)amino]-N,N-dimethyl-5,6,7,8-tetrahydro[1]benzothieno[2,3-d]pyrimidine-7-carboxamide]	3.6 nM
CN(C)C(=O)[C@H]1CCc2c(sc3ncnc(Nc4cc5cn[nH]c5cc4Cl)c23)C1 [Example 182, (7S)-4-[(6-Chloro-1H-indazol-5-yl)amino]-N,N-dimethyl-5,6,7,8-tetrahydro[1]benzothieno[2,3-d]pyrimidine-7-carboxamide]	5.3 nM
C[C@@H]1CN(C(=O)[C@H]2CCc3c(sc4ncnc(Nc5cc6cn[nH]c6cc5N5CCCC5)c34)C2)C[C@H](C)O1 [Example 183, [(2R,6S)-2,6-Dimethylmorpholin-4-yl][(7S)-4-{[6-(pyrrolidin-1-yl)-1H-indazol-5-yl]amino}-5,6,7,8-tetrahydro[1]benzothieno[2,3-d]pyrimidin-7-yl]methanone]	0.7 nM
C[C@@H]1COCCN1C(=O)[C@H]1CCc2c(sc3ncnc(Nc4cc5cn[nH]c5cc4N4CCCC4)c23)C1 [Example 184, [(3R)-3-Methylmorpholin-4-yl][(7S)-4-{[6-(pyrrolidin-1-yl)-1H-indazol-5-yl]amino}-5,6,7,8-tetrahydro[1]benzothieno[2,3-d]pyrimidin-7-yl]methanone]	0.4 nM
C[C@H]1COCCN1C(=O)[C@H]1CCc2c(sc3ncnc(Nc4cc5cn[nH]c5cc4N4CCCC4)c23)C1 [Example 185, [(3S)-3-Methylmorpholin-4-yl][(7S)-4-{[6-(pyrrolidin-1-yl)-1H-indazol-5-yl]amino}-5,6,7,8-tetrahydro[1]benzothieno[2,3-d]pyrimidin-7-yl]methanone]	0.6 nM
CN(C)C(=O)[C@H]1CCc2c(sc3ncnc(Nc4cc5cn[nH]c5cc4S(C)(=O)=O)c23)C1 [Example 186, (7S)—N,N-Dimethyl-4-{[6-(methylsulfonyl)-1H-indazol-5-yl]amino}-5,6,7,8-tetrahydro[1]benzothieno[2,3-d]pyrimidine-7-carboxamide]	44.7 nM
C[C@@H]1COCCN1C(=O)[C@H]1CCc2c(sc3ncnc(Nc4cc5cn[nH]c5cc4N(C)C)c23)C1 [Example 187, [(7S)-4-{[6-(Dimethylamino)-1H-indazol-5-yl]amino}-5,6,7,8-tetrahydro[1]benzothieno[2,3-d]pyrimidin-7-yl][(3R)-3-methylmorpholin-4-yl]methanone]	0.2 nM
C[C@H]1COCCN1C(=O)[C@H]1CCc2c(sc3ncnc(Nc4cc5cn[nH]c5cc4N(C)C)c23)C1 [Example 188, [(7S)-4-{[6-(Dimethylamino)-1H-indazol-5-yl]amino}-5,6,7,8-tetrahydro[1]benzothieno[2,3-d]pyrimidin-7-yl][(3S)-3-methylmorpholin-4-yl]methanone]	0.3 nM
C[C@@H]1CN(C(=O)[C@H]2CCc3c(sc4ncnc(Nc5cc6cn[nH]c6cc5N(C)C)c34)C2)C[C@H](C)O1 [Example 189, [(7S)-4-{[6-(Dimethylamino)-1H-indazol-5-yl]amino}-5,6,7,8-tetrahydro[1]benzothieno[2,3-d]pyrimidin-7-yl][(2R,6S)-2,6-dimethylmorpholin-4-yl]methanone]	0.1 nM
CCOc1cc2[nH]ncc2cc1Nc1ncnc2sc3c(c12)CC[C@H](C(=O)N1CC[C@@H](N(C)C)C1)C3 [Example 190, [(3R)-3-(Dimethylamino)pyrrolidin-1-yl]{(7S)-4-[(6-ethoxy-1H-indazol-5-yl)amino]-5,6,7,8-tetrahydro[1]benzothieno[2,3-d]pyrimidin-7-yl}methanone]	0.3 nM
CN(C)C(=O)[C@H]1CCc2c(sc3ncnc(Nc4cc5cn[nH]c5cc4OC(F)(F)F)c23)C1 [Example 191, (7S)—N,N-Dimethyl-4-{[6-(trifluoromethoxy)-1H-indazol-5-yl]amino}-5,6,7,8-tetrahydro[1]benzothieno[2,3-d]pyrimidine-7-carboxamide]	1.4 nM
CCCSc1cc2[nH]ncc2cc1Nc1ncnc2sc3c(c12)CC[C@H](C(=O)N(C)C)C3 [Example 192, (7S)—N,N-Dimethyl-4-{[6-(propylsulfanyl)-1H-indazol-5-yl]amino}-5,6,7,8-tetrahydro[1]benzothieno[2,3-d]pyrimidine-7-carboxamide]	2.2 nM
CN(C)C(=O)[C@H]1CCc2c(sc3ncnc(Nc4cc5cn[nH]c5cc4OCCN4CCCC4=O)c23)C1 [Example 193, (7S)—N,N-Dimethyl-4-({6-[2-(2-oxopyrrolidin-1-yl)ethoxy]-1H-indazol-5-yl}amino)-5,6,7,8-tetrahydro[1]benzothieno[2,3-d]pyrimidine-7-carboxamide]	222 nM
CN(C)C(=O)[C@H]1CCc2c(sc3ncnc(Nc4cc5cn[nH]c5cc4OCCN4CCOC4=O)c23)C1 [Example 194, (7S)—N,N-Dimethyl-4-({6-[2-(2-oxo-1,3-oxazolidin-3-yl)ethoxy]-1H-indazol-5-yl}amino)-5,6,7,8-tetrahydro[1]benzothieno[2,3-d]pyrimidine-7-carboxamide]	44.3 nM
